Results as given in patent US20200138764A1, “METHODS AND DEVICES FOR ACTIVATING ADIPOSE TISSUE” (The Procter & Gamble Company, priority 2018, published 2020).

Tests used:
[1] = test system: adipocyte; test: In vivo browning study in lean mice: Fat % by image analysis of H&E stained tissue; set-up: species or system Mice (C57BJ/6)
Method: (§1) Mice (8-10 weeks old males C57BJ/6 strain) were obtained from a commercial vendor Charles River Laboratories. The animal study protocols were approved by the Institutional Animal Care and Use Committee, at the Procter & Gamble Company. Mice were acclimated to the facility for 14 days prior to initiating the study. From arrival, mice were housed in solid-bottom shoebox styled cages within room temperature of 22±2° C. with ad libitum access to water and regular rodent chow diet on a 12 h light/dark cycle. Mice were single housed and offered bedding and various enrichment options. The bedding and nesting material allowed the mice to thermoregulate to their desired level of comfort. Body weights were recorded at the beginning of the study, on each dosing day prior to dosing, and final weights were recorded at the end of the study. Overall food consumption, fecal output, and body appearance were monitored during cage side clinical observations but were not scientifically measured or tracked. During the dosing period, the animals were observed several times per day (for example, before and during injection, immediately to 30-min post injection, a few hours after injection, and end of work day).
[…] The injection was performed using a 25-27-gauge ½-⅝″ length needle via a subcutaneous (SC) injection near or into the inguinal fat pad region of the lower abdomen. Dosing was done twice a week injections over 3 weeks. Necropsy was done at week 4. […]
Segments of adipocyte and inter-cellular regions in a stained image were identified by Python […] package. […] The threshold between adipocyte and inter-cellular regions in a converted image was detected by the Otsu filter function of the […]. The detected value was adjusted by multiplying 1.1.
The ratio of adipocyte in an image was calculated from the pixel number of the segments—Adipocyte Pixel was divided by Total Pixel.
The significance of the difference in Adipocyte Ratio between treatment and control groups was assessed by the Negative Binomial Generalized Linear Mixed-Effects Model using glmer.nb function of R lme4 package. […]

[2] = test system: fat tissue; test: qPCR biomarker analysis of fat tissue, in vivo; set-up: species or system Mice (C57BJ/6); conditions: mouse fat tissue, SC injection twice a week over 3 weeks
Method: as §1
Three groups of animals were treated with mirabegron (i.e. positive control) (n=4), placebo (n=2) and Formula III (n=6) on the left side while the right side received placebo in all three groups. The injection was performed using a 25-27-gauge ½-⅝″ length needle via a subcutaneous (SC) injection near or into the inguinal fat pad region of the lower abdomen. Dosing was done twice a week injections over 3 weeks. Necropsy was done at week 4. Test materials were administered at room temperature and in a neutral pH range. Three days after last dosing animals were euthanized with CO2 inhalation, inguinal fat pads were harvested, and tissues were processed for histology and biomarker analysis.
The qPCR biomarker analysis was conducted from flash frozen fat tissue from mouse study described above. First, RNA was manually extracted with RNAdvance Tissue kit (Agencourt). RNA was extracted from flash frozen fat tissue according to manufactuer's directions. For example, 5 mm steel beads were placed in the freezer for approximately 15-20 minutes. Next, Qiagen Buffer RLT was cooled to 4° C. for 20 minutes and placed in a 96 well 1.5 mL tube rack for sample transfer. Isopropanol was added to Agencourt wash buffer. 100 mL aliquots of 70% ethanol in water were prepared. The RNA Tissue beads were allowed to warm to 22° C. (˜30 minutes), and then the beads were shaken vigorously and intermittently for at least 15-20 minutes. 1 stainless steel bead was added to a 2 mL round bottom tube stored on dry ice. The tissue sample was then transferred to the 2 mL round bottom tube.
The tube rack was placed on wet ice. Then, the tubes were transferred from dry ice to the rack in wet ice and 350 μL of cold buffer RLT were added to the tubes. The beads were beaten at 30 Hz for 2 minutes. After bead beating, samples were centrifuged for 2 minutes. The supernatant was transferred into 96 well deep well isolation plate.
80 μL of RNATissue beads were combined with 320 μL of isopropanol to create a Bind Buffer. This solution was prepared fresh for each isolation with any unused solution discarded.
400 μL of Bind Buffer was added to the to RLT mixture and slowly mixed. The solution was incubated at room temperature for 10 minutes. Special care was taken to avoid the formation of bubbles while tip mixing.
The mixture was placed on a magnet (96 well plate—Agencourt SPRIPlate) for 6-10 minutes. After the solution became clear, the supernatant was removed from each tube while the tubes remained on the magnet and the solution was discarded.
The tubes were removed from the magnet and the pellets were washed with 800 μL of the Isopropanol Wash Buffer ten times. […]

## CC(C)[C@@H]1CC[C@@H](C)C[C@H]1C(=O)NC[C@@H](NC(=O)[C@H](C)N)c1ccccc1 [Formula III]
[1]; mice, SC injection, Formula III one side and mirabegron other side, high and middle dosage merged, H&E images
  Average Fat % (Adipocyte Pixel / Total Pixel): 90.81%
[1]; treatment vs control, p-value 0.0278, negative binomial mixed-effects model
  treatment effect of reducing the adipocyte ratio: statistically significant
[2]
  Average Fold vs Placebo: AdipoQ: 4.7
  Average Fold vs Placebo: Adrb3: 18.3
  Average Fold vs Placebo: Cidea: 28.0
  Average Fold vs Placebo: Cox7a1: 5.7
  Average Fold vs Placebo: Cox8b: 19.0
  Average Fold vs Placebo: Dio2: 1.8
  Average Fold vs Placebo: Elovl3: 37.5
  Average Fold vs Placebo: IL6: 0.8
  Average Fold vs Placebo: Ppargc1: 3.0
  Average Fold vs Placebo: Prdm16: 3.5
  Average Fold vs Placebo: Tfap2a: 1.2
  Average Fold vs Placebo: UCP1: 73.2
